Some test systems named below: HS 578T breast; SF-539 CNS; UACC-62 melanoma; IGROV1 ovarian; OVCAR-4 ovarian; KM12 colon; UACC-257 melanoma; SR leukemia; HCC-2998 colon; OVCAR-8 ovarian.
What all share (experiment): inhibition of tumour cell growth, NCI panel, 48 h

Structures are written as SMILES. “And” between values parts separate entries of the source, which are not always exact repeats. Equal entries are not always repeated.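 Briefly, cells in 96-well plates were exposed to five compound concentrations for 48 h, and endpoints were estimated by linear interpolation. GI50 = concentration required for 50% inhibition of growth. TGI is the concentration that stops growth completely.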

Seven compounds from PubChem BioAssay (NCI) can be followed below.

Regarding `CCC(=O)Nc1nnc(Cc2ccc(OC)c(OC)c2)s1`, the GI50 with HS 578T breast, in the assay on SF-539 CNS, with UACC-62 melanoma, with IGROV1 ovarian, with OVCAR-4 ovarian and with KM12 colon was greater than 100 µM each time. In addition, the GI50 in the assay on UACC-257 melanoma, with SR leukemia, in the assay on HCC-2998 colon and with OVCAR-8 ovarian was greater than 100 µM each time. For the same compound, the TGI in the assay on HS 578T breast, in the assay with SF-539 CNS, with UACC-62 melanoma, in the assay on IGROV1 ovarian, in the assay with OVCAR-4 ovarian and in the assay with KM12 colon was greater than 100 µM in each case. Moreover, the TGI with UACC-257 melanoma, in the assay with SR leukemia, with HCC-2998 colon and in the assay on OVCAR-8 ovarian was greater than 100 µM in each case.

With `O=C1Cc2cc(CCN3CCNCC3)c(Cl)cc2N1`, the GI50 in the assay on HS 578T breast was 1.57 µM; with SF-539 CNS, greater than 100 µM; in the assay with UACC-62 melanoma, 6.54 µM; in the assay on OVCAR-4 ovarian, 87.8 µM; in the assay with KM12 colon it was 3.96 µM; with UACC-257 melanoma it was 6.52 µM. Moreover, the GI50 was 6.2 µM in the assay on SR leukemia, 46.6 µM in the assay with HCC-2998 colon and 36.8 µM with OVCAR-8 ovarian. Moreover, the TGI in the assay with HS 578T breast, in the assay on SF-539 CNS, in the assay on UACC-62 melanoma, in the assay on OVCAR-4 ovarian, with KM12 colon and in the assay with UACC-257 melanoma was greater than 100 µM throughout. Moreover, the TGI in the assay on SR leukemia, in the assay with HCC-2998 colon and in the assay with OVCAR-8 ovarian was greater than 100 µM throughout.

With `Cn1c(I)c(C#C[Si](C)(C)C)c(=O)[nH]c1=O`, the GI50 with HS 578T breast is 2.3 µM; in the assay with SF-539 CNS, 9.28 µM; in the assay with UACC-62 melanoma it was 6.4 µM; in the assay on IGROV1 ovarian it was 1.9 µM; in the assay on OVCAR-4 ovarian, 1.97 µM; in the assay with KM12 colon, 16.8 µM. In addition, the GI50 with UACC-257 melanoma is 0.236 µM; in the assay with SR leukemia, 3.37 µM; in the assay with HCC-2998 colon, 2.32 µM; in the assay on OVCAR-8 ovarian it was 12.1 µM. The TGI in the assay on HS 578T breast worked out at 7.08 µM; with SF-539 CNS, 21.4 µM; in the assay with UACC-62 melanoma, 19.8 µM; in the assay with IGROV1 ovarian, 3.63 µM; in the assay with OVCAR-4 ovarian it was 3.59 µM; in the assay on KM12 colon, 32.4 µM. Moreover, the TGI in the assay with UACC-257 melanoma turned out to be 3.85 µM; in the assay on SR leukemia it was 5.82 µM; with HCC-2998 colon it was 4.59 µM; in the assay on OVCAR-8 ovarian it was 25.6 µM.

In the case of `CCS(=O)(=O)c1ccc(OC)c(Nc2ncc(-c3cccc(F)c3)o2)c1`, the GI50 was 2.5 µM in the assay with HS 578T breast; greater than 25 µM with SF-539 CNS; greater than 25 µM in the assay on UACC-62 melanoma; greater than 25 µM in the assay on IGROV1 ovarian; greater than 25 µM in the assay with OVCAR-4 ovarian; 0.649 µM in the assay on KM12 colon. For the same compound, the GI50 in the assay with UACC-257 melanoma, in the assay with SR leukemia, with HCC-2998 colon and in the assay with OVCAR-8 ovarian was greater than 25 µM in each case. Moreover, the TGI was greater than 22.3 µM in the assay with HS 578T breast; greater than 25 µM with SF-539 CNS; greater than 25 µM in the assay with UACC-62 melanoma; greater than 25 µM with IGROV1 ovarian; greater than 25 µM in the assay with OVCAR-4 ovarian; greater than 25 µM in the assay with KM12 colon. The TGI with UACC-257 melanoma, with SR leukemia, with HCC-2998 colon and with OVCAR-8 ovarian was greater than 25 µM in each case.

`COc1cc(C(=O)n2nc(N)c3c(C)cc(C)nc32)cc(OC)c1OC`: the GI50 in the assay with HS 578T breast was greater than 100 µM; with SF-539 CNS it was greater than 23.4 µM; in the assay on UACC-62 melanoma, 54.1 µM; in the assay on IGROV1 ovarian, greater than 100 µM; in the assay with OVCAR-4 ovarian it was greater than 100 µM; in the assay on KM12 colon it was 10.4 µM. Besides, the GI50 was greater than 100 µM in the assay with UACC-257 melanoma, 0.784 µM with SR leukemia, greater than 100 µM with HCC-2998 colon and greater than 100 µM with OVCAR-8 ovarian. For the same compound, the TGI with HS 578T breast, in the assay with SF-539 CNS, with UACC-62 melanoma, in the assay on IGROV1 ovarian, in the assay on OVCAR-4 ovarian and with KM12 colon was greater than 100 µM throughout. For the same compound, the TGI in the assay on UACC-257 melanoma, in the assay on SR leukemia, in the assay on HCC-2998 colon and in the assay on OVCAR-8 ovarian was greater than 100 µM in each case.

In the case of `COc1ccc2c(c1)nnc1c3cccnc3[nH]c21`, the GI50 was 3.47 µM and 4.89 µM with HS 578T breast; 0.642 µM and 0.428 µM in the assay with SF-539 CNS; 0.908 µM and 2.11 µM in the assay with UACC-62 melanoma; 0.31 µM and 0.55 µM in the assay on IGROV1 ovarian; 1.41 µM and 2.58 µM with OVCAR-4 ovarian; 1.22 µM and 1.92 µM in the assay on KM12 colon. For the same compound, the GI50 in the assay with UACC-257 melanoma is 7.49 µM and 1.91 µM; with SR leukemia, 0.0313 µM and 0.0336 µM; with HCC-2998 colon, 8.23 µM and 10 µM; in the assay with OVCAR-8 ovarian it was 0.619 µM and 0.376 µM. The TGI was 25.5 µM and 81.2 µM in the assay with HS 578T breast; 1.62 µM and 1.87 µM in the assay with SF-539 CNS; 6.93 µM and 12.6 µM with UACC-62 melanoma; 16.2 µM and > 100 µM in the assay on OVCAR-4 ovarian; 5.89 µM and 13.4 µM in the assay on KM12 colon; 41 µM and 10.7 µM with UACC-257 melanoma. Also, the TGI with HCC-2998 colon is 18.4 µM and 23.8 µM.

As for `O=C1/C(=C/c2ccc(C(F)(F)F)cc2)COc2ccc(O)c(O)c21`, the GI50 with HS 578T breast was 2.2 µM; in the assay on SF-539 CNS it was 1.14 µM; in the assay on UACC-62 melanoma, 1.48 µM; in the assay on IGROV1 ovarian, 0.476 µM; in the assay with OVCAR-4 ovarian, 1.39 µM; in the assay on KM12 colon it was 1.7 µM. Further, the GI50 in the assay on UACC-257 melanoma is 1.58 µM; with SR leukemia, 0.267 µM; in the assay on HCC-2998 colon, 1.7 µM; with OVCAR-8 ovarian it was 0.846 µM. Further, the TGI with HS 578T breast is 6.02 µM; in the assay with SF-539 CNS, 2.46 µM; with UACC-62 melanoma it was 2.87 µM; in the assay with IGROV1 ovarian, 1.84 µM; in the assay on OVCAR-4 ovarian, 2.72 µM; with KM12 colon it was 3.84 µM. Further, the TGI was found to be 3.46 µM with UACC-257 melanoma, 2.53 µM with SR leukemia, 3.16 µM in the assay with HCC-2998 colon and 2.96 µM in the assay on OVCAR-8 ovarian.
